The test system of one series is SNL rats. Nature of the series: Spinal nerve ligation (SNL) rats, von Frey monofilament test. Type of series: in vivo, rat. To be noted: for order of analgesic efficacy against allodynia: each 30 mg/kg P.O.; for SNL Model Mechanical % of baseline: pain in rats, 30 mg/kg, P.O. As to the method: FIG. 5A. Mechanical pain threshold assessment (von Frey monofilament test) of spinal nerve ligation (SNL) rats' left hindpaws. Each SNL rat received either EXAMPLE-128, at 3, 10 or 30 mg/kg (2 mL oral gavage, P.O.), or vehicle (2 mL 2% DMSO in 0.5% HPC, P.O.). […] Mechanical pain responses were measured at 1, 2, 4 and 6 hours after treatment (n=8 rats per treatment group).
FIG. 5B. Mechanical pain threshold assessment (von Frey monofilament test) of SNL rats' left hindpaws. In the same cohort of animals, each SNL rat received either EXAMPLE-128, -130, Z944 (as a reference compound, each at 30 mg/kg, 2 mL oral gavage, P.O.), or vehicle (2 mL 2% DMSO in 0.5% HPC, P.O.). The degree of analgesia against allodynia in the order of EXAMPLE-128>Z944>EXAMPLE-130 compared to the […] group. Mechanical pain responses were measured at 1, 2, 4 and 6 hours after treatment (n=8 rats per treatment group).
The spinal nerve ligation (SNL) in rats is another commonly used neuropathic pain model (Kim & Chung, 1992). The analgesic effect of the selected EXAMPLE-128 was tested in this model. Baseline mechanical thresholds on the rats' left hindpaws of male rats (Sprague-Dawley rats, 300 g-350 g, Harlan) were taken using von Frey hair monofilaments prior to surgery. Ligation of the L5 peripheral nerve was made on the left side under anesthesia. Total 32 rats underwent surgery (n=8 rats per treatment group). Ten days post-surgery, approximately 75-85(%) reduction in mechanical pain was observed, confirming the presence of mechanical allodynia in the SNL rats. Each rat received either EXAMPLE-128 (at 3, 10 and 30 mg/kg, each dose in […], P.O.), or vehicle (2% DMSO in 0.5% HPC, […], P.O.). Mechanical thresholds were measured at 1, 2, 4, and 6 hours post-treatment/dosing. […] The drug actions started around 1 hour post-injection and peaked between 1 and 2 hours, and the drug effects gradually declined to pre-treatment levels in 6 hours (FIG. 5A). After the drug had been eliminated, and the thresholds had returned to initial mechanical allodynia, a comparative test of EXAMPLE-128 and -130 vs Z944 (each at 30 mg/kg, P.O.) was conducted in the same cohort of SNL rats. The analgesic efficacy is in the order of EXAMPLE-128>Z944>EXAMPLE-130 (FIG. 5B).

A short description of the next series: Plasma stability, human. It counts as in vitro ADME. The source says:
(§1) In vitro data of metabolic stability and protein binding as well as in vivo pharmacokinetic data for compounds of the invention can be generated using the techniques disclosed in, e.g., Obach, R. S. et al., J. Pharmacol. Exp. Ther. 283(1): 46-58 (1997), which is hereby incorporated by reference in its entirety. Various biological, pharmacokinetic and other properties of the compounds, including hepatic microsomal stability, determination of metabolites, binding to proteins such as plasma protein binding, and in vivo studies, including single-dose and multi-dose pharmacokinetic studies, can be determined using the protocols described in that publication and the publications cited therein. Other aspects and advantages of the present invention will become apparent from the above detailed description, as illustrated by way of example of the principles of the invention. The scope of the invention is to be defined by the claims appended hereto and their equivalents. Selected pharmacokinetic studies in vitro and in vivo in rats were performed for preferred compounds, for example EXAMPLE-128 and compared with two reference compounds ML218 and Z944 by a contract research organization (BioDuro, Inc., San Diego, US). Tables 3A and 3B summarize some of the in vitro and vivo pharmacodynamic and pharmacokinetic parameters, respectively.

The nature of the next series: Plasma stability, rat. It counts as in vitro ADME.
Text: as §1

The nature of the next series: Rat pharmacokinetics. It counts as in vivo. To be noted: for half-life / AUC / bioavailability: plasma; for AUC: read-out: Rat PK AUCfree; for bioavailability: read-out: Rat PK F (%) bioavailability.
Text: as §1

For series [1], the system named is SNI rats. Nature of the series: Spared nerve injury (SNI) rats, von Frey monofilament test. Type of series: in vivo, rat. To be noted: for duration of elevated mechanical thresholds: 10 mg/kg P.O. As to the method: FIG. 3B. Mechanical pain threshold assessment (von Frey monofilament test) of SNI rats' left hindpaws. Each SNI rat received either EXAMPLE-106, -107, and -115 (each 30 mg/kg, 1 mL I.P.), or vehicle (1 mL I.P. 2% DMSO in 0.5% HPC). Sham rats also received vehicle I.P. injections. […] The sham-vehicle serves as a positive control. Thermal and mechanical pain responses were measured once every hour for 8 consecutive hours after I.P. treatment (n=8 rats per treatment group).
FIG. 4. Mechanical pain threshold assessment (von Frey monofilament test) of left hindpaws in another cohort of SNI rats. Each SNI rat received either EXAMPLE-128, -130, -132, or Z944 (as a reference compound, each 10 mg/kg, 2 mL oral gavage, P.O.). […] Mechanical pain responses were measured at pre-dosing, 1, 2, 4, and 6 hours post-treatment using von Frey monofilament test (n=8 rats per group).
In additional examples shown here, the analgesic effects were further evaluated in another rat species. Baseline thermal and mechanical thresholds of male rats (Sprague-Dawley rats, 275 g-325 g, Harlan) were taken prior to surgery; baseline thresholds were measured on the rats' left hindpaws. Thirty-two rats underwent the SNI surgery on their left hind leg; 8 rats underwent surgery without injury of the nerves as a sham group. Two weeks post-surgery, the thermal thresholds of each rat were reassessed. […] Each rat received either EXAMPLE-106, -107, -115 (each 30 mg/kg, 1 mL I.P.), or vehicle (2% DMSO in 0.5% HPC). Thermal and mechanical thresholds were measured at 1, 2, 3, 4, 5, 6, 7, and 8 hours post-treatment/dosing. […] The drug actions started around 1 hour post-injection and peaked between 2 and 3 hours, and the drug effects gradually declined to pre-treatment levels over 6-7 hours (FIGS. 3A and B).
In another cohort of SNI rats ((n=8 per group)), mechanical thresholds were measured at pre-dosing, 1, 2, 4, and 6 hours post-treatment using von Frey monofilament test.

Series [2] in a line: Plasma protein binding, human. Type of series: in vitro ADME. To be noted: for fraction unbound: read-out: PPB % (Human) (converted).
Text: as §1

In series [3] the test system is SNI rats. The series can be described thus: Spared nerve injury (SNI) rats, von Frey monofilament test. It counts as in vivo, rat. To be noted: pain in rats, 30 mg/kg, P.O.
Series [4] is described as follows: SafetyScreen 44 ancillary pharmacology panel. An excerpt: Moreover, compounds useful in therapeutic formulations may be further screened for undesired side effect activities by utilizing large ancillary pharmacology panel screens, for example, SafetyScreen 44 and the Ames microsomemutagenicity assay (Eurofins-Cerep, US and France).
A short description of series [5]: Metabolic stability in rat liver microsomes. It counts as in vitro ADME.
Text: as §1
For orientation: Liver microsomes are vesicles of endoplasmic reticulum, rich in cytochrome P450 enzymes.

[6] abbreviates: SNL rats, 3, 10 and 30 mg/kg P.O.
[7] abbreviates: iv, read-out: Plasma t1/2 (h) iv (converted).
Setting [8] is: po, read-out: Plasma t1/2 (h) po (converted).
Setting [9] is: 10 mg/kg oral gavage, P.O., 10 mg/kg.
[10] abbreviates: read-out: Rat Liver Microsomes Clint (μL/min/mg protein).
Where [11] appears, read: read-out: Rat Liver Microsomes t1/2.

“Also recorded” adds a separate entry of the source. Where two headings read alike, the source gives them in different places.

As to `CC(C)(C)NC(=O)CN1CCC2(CC1)CC2NC(=O)c1cc(F)cc(Cl)c1` (single isomer, unassigned) [Example 128, (S)—N-(6-(2-(tert-Butylamino)-2-oxoethyl)-6-azaspiro[2.5]octan-1-yl)-3-chloro-5-fluorobenzamide or (R)—N-(6-(2-(tert-Butylamino)-2-oxoethyl)-6-azaspiro[2.5]octan-1-yl)-3-chloro-5-fluorobenzamide], in the series on SNL rats (setting [6]), the “start of drug action post-injection” value is “around 1 hour” and the “time for drug effects to decline to pre-treatment levels” value came to 6 h. The “mechanical pain threshold of left hindpaw (allodynia)” value (“mechanical pain threshold” for short) in the series on SNL rats (SNL rats, 3, 10 or 30 mg/kg P.O.) is on record as “elevated mechanical thresholds in a dose-related manner; also recorded: reduced allodynia compared to the SNI-vehicle group in a dose-related manner”. Besides, the “order of analgesic efficacy against allodynia” value (shortened to “order of analgesic efficacy”) in the series with SNL rats (SNL rats) was “EXAMPLE-128>Z944>EXAMPLE-130”. Further, in the series on SNL rats, the “SNL Model Mechanical % of baseline” value is listed as 129 ± 28 % of baseline. Further, the “Plasma Stability @ 5 h % (Human)” value in the series “Plasma stability, human” is reported as 95.7/ %. Further, the “Plasma Stability @ 5 h % (Rat)” value in “Plasma stability, rat” came out at 98.3%. For the same compound, in “Rat pharmacokinetics”, the “Rat PK AUCtotal (μM*h)” value is 4.1 h/µM, the AUC was 1 µM·h and the bioavailability came out at 62%. In addition, the half-life in “Rat pharmacokinetics” (setting [7]) was 3.34 h. Moreover, the half-life in the series “Rat pharmacokinetics” (setting [8]) is 3.66 h. In addition, the “duration of elevated mechanical thresholds” value (“duration” for short) with SNI rats [1] was “approximately 4 hours”. In addition, in the series on SNI rats [1] (setting [9]), the “mechanical pain threshold” value is on record as “elevated mechanical thresholds; also recorded: reduced allodynia”. In series [2], the recovery is 98.3% and the fraction unbound is 0.043. Moreover, in the series with SNI rats [3], the “SNI-Model Mechanical % of baseline” value is reported as 45 ± 15 % of baseline. Besides, the off-target activities result in series [4] was “no significant off-target activities”. In series [5], this compound returned a half-life of 5.25 h and a microsomal CLint of 2.2 µL/min/mg.
As to `CC(C)(C)NC(=O)CN1CCC2(CC1)C[C@H]2NC(=O)c1cc(F)cc(C(F)(F)F)c1` (single isomer, unassigned) [Example 130, (R)—N-(6-(2-(tert-Butylamino)-2-oxoethyl)-6-azaspiro[2.5]octan-1-yl)-3-fluoro-5-(trifluoromethyl)benzamide or (S)—N-(6-(2-(tert-Butylamino)-2-oxoethyl)-6-azaspiro[2.5]octan-1-yl)-3-fluoro-5-(trifluoromethyl)benzamide], the “order of analgesic efficacy” value in the series with SNL rats (SNL rats) is “EXAMPLE-128>Z944>EXAMPLE-130”. Besides, in the series on SNI rats [1], the “duration” value was “approximately 4 hours”. Moreover, the “mechanical pain threshold” value in the series on SNI rats [1] (setting [9]) is listed as “elevated mechanical thresholds; also recorded: reduced allodynia”.
As to `CC(C)(C)NC(=O)CN1CCC2(CC1)C[C@H]2C(=O)Nc1cc(C(F)(F)F)cc(C(F)(F)F)c1` (single isomer, unassigned) [Example 132, (R)—N-(3,5-Bis(trifluoromethyl)phenyl)-6-(2-(tert-butylamino)-2-oxoethyl)-6-azaspiro[2.5]octane-1-carboxamide or (S)—N-(3,5-Bis(trifluoromethyl)phenyl)-6-(2-(tert-butylamino)-2-oxoethyl)-6-azaspiro[2.5]octane-1-carboxamide], the “duration” value with SNI rats [1] was “approximately 4 hours”. Moreover, in the series on SNI rats [1] (setting [9]), the “mechanical pain threshold” value is given as “elevated mechanical thresholds; also recorded: reduced allodynia”.
Turning to `O=C(Nc1nnc(-c2ccccc2)o1)c1ccc(Cl)s1` [Example 115, 5-Chloro-N-(5-phenyl-1,3,4-oxadiazol-2-yl)thiophene-2-carboxamide], the “start of drug action post-injection” value in the series with SNI rats [1] (30 mg/kg I.P., thermal and mechanical thresholds) is recorded as “around 1 hour”. In addition, in the series on SNI rats [1] (30 mg/kg, 1 mL I.P.), the “mechanical pain threshold” value was “elevated both thermal and mechanical thresholds; also recorded: reduced allodynia”.
Turning to `CC(C)(C)CCN1C[C@@H]2[C@@H](CNC(=O)c3cc(Cl)cc(Cl)c3)[C@@H]2C1` [ML218, 3,5-Dichloro-N-[[(1α,5α,6-exo,6α)-3-(3,3-dimethylbutyl)-3-azabicyclo[3.1.0]hex-6-yl]methyl]benzamide, reference compound], the “Plasma Stability @ 5 h % (Human)” value in the series “Plasma stability, human” is 97.9/ %. Also, the “Plasma Stability @ 5 h % (Rat)” value in the series “Plasma stability, rat” came out at 99.2%. For the same compound, in “Rat pharmacokinetics”, the “Rat PK AUCtotal (μM*h)” value is 0.071 h/µM, the AUC was 0.007 µM·h and the bioavailability turned out to be 28%. Further, in “Rat pharmacokinetics” (setting [7]), the half-life was 236 h. Also, in series [2], the recovery came out at 97.1% and the fraction unbound was 0.046. Further, the “SNI-Model Mechanical % of baseline” value in the series on SNI rats [3] is on record as 45 ± 11 % of baseline. Moreover, in [5] (setting [10]), the microsomal CLint was 5.5 µL/min/mg. Further, the half-life in series [5] (setting [11]) worked out at 2.1 h.
On to `CC(C)(C)NC(=O)CN1CCC(CNC(=O)c2cc(F)cc(Cl)c2)CC1` [Z944, reference compound], for which the “order of analgesic efficacy” value in the series with SNL rats (SNL rats) was “EXAMPLE-128>Z944>EXAMPLE-130”. Besides, the “SNL Model Mechanical % of baseline” value with SNL rats is recorded as 94 ± 38 % of baseline. Also, the “Plasma Stability @ 5 h % (Human)” value in “Plasma stability, human” is given as 100/ %. In “Plasma stability, rat”, the “Plasma Stability @ 5 h % (Rat)” value was 100%. In addition, in the series “Rat pharmacokinetics”, the “Rat PK AUCtotal (μM*h)” value stood at 0.51 h/µM, the AUC amounted to 0.14 µM·h and the bioavailability was 55%. The half-life in “Rat pharmacokinetics” (setting [7]) was 1.5 h. In the series “Rat pharmacokinetics” (setting [8]), the half-life was 2.26 h. In addition, in the series with SNI rats [1], the “duration” value is given as “approximately 4 hours”. In the series on SNI rats [1] (setting [9]), the “mechanical pain threshold” value was “elevated mechanical thresholds; also recorded: reduced allodynia”. In [2], the recovery stood at 93.6% and the fraction unbound is 0.064. Further, the “SNI-Model Mechanical % of baseline” value in the series with SNI rats [3] was 28 ± 18 % of baseline. Further, the microsomal CLint in [5] (setting [10]) is 13.2 µL/min/mg. For the same compound, the half-life in series [5] (setting [11]) amounted to 0.875 h.

One may read the bioavailability as dose-corrected exposure relative to a reference, in per cent.
